Earlier results in patent publication US20040234631A1, “Composition comprising soy and use thereof in the provention and/or treatment of various diseases” (priority 2001, published 2004).

Columns and labels:
blood vessels = conditions: very low concentration
estrogenic effect = conditions: in vitro, reported by Knight

Compound	concentration causing dilation of blood vessels (blood vessels) [nM]	relative estrogenic potency (estradiol = 100) (estrogenic effect)
1-alkyl-2-acetyl analog of phosphatidyl choline [platelet-activating factor]	0.1	–
O=c1c(-c2ccc(O)cc2)coc2cc(O)ccc12 [daidzein]	–	0.013
